Results on two molecules are retold here after US4697022A, “Process for the preparation of optically-active carbazole derivatives, new R- and S-carbazole derivatives and pharmaceutical compositions containing these compounds” (Boehringer Mannheim GmbH, priority 1983, dated 1987).

One experiment concerns isoprenaline tachycardia. The experiment can be described thus: β-blocking action: inhibition of isoprenaline tachycardia in awake rabbits. Format: in vivo, rabbit. Particulars: for ED50: Oryctolagus cuniculus, iv, 50% inhibiting dosage, isoprenaline tachycardia, purity >99.4%, read-out: β-blockade ED50%; for β-blocking properties: in words.
The test system of experiment [1] is blood vessels (blood pressure). The experiment can be described thus: vasodilation: direct blood pressure lowering after a single i.v. administration in awake spontaneously hypertonic rats (SHR). Format: in vivo, rat (spontaneously hypertonic. The note with it: for ED (30 mmHg): Rattus norvegicus, iv, dosage for lowering of blood pressure by 30 mm.Hg, awake SHR, single i.v. administration, purity >99.4%. The method, then: (measured as direct blood pressure lowering after a single administration)
In awake, spontaneously hypertonic rats (SHR), catheters were implanted in the arteria femoralis and the vena jugularis. Via the veins, there were injected appropriate dosages of the enantiomers (R-carvedilol and S-carvedilol in dosages of 0.03; 0.1; 0.3; 1.0 and 3 mg/kg. i.v.) and the arterial blood pressure lowering was determined via the arterial pressure catheter (as an expression of the vasodilation). As a measure of the antihypertensive effect, there were calculated the dosages for lowering of the blood pressure by 30 mm.Hg.

Usually ED50 stands for the dose at which the effect has come halfway, by size or by number of responders. Take `COc1ccccc1OCCNC[C@@H](O)COc1cccc2[nH]c3ccccc3c12` [R-carvedilol, R-(+)-(1-Carbazol-4-yloxy)-3-[2-(2-methoxyphenoxy)]ethylaminopropan-2-ol]: in the experiment with isoprenaline tachycardia (awake rabbits, i.v.), the ED50 is 3.98 mg/kg. Further, in the experiment with isoprenaline tachycardia (ratio of ED50% R-carvedilol to S-carvedilol, i.v., awake rabbits), the “β-blockade: difference factor of the dosages of R- and S-carvedilol” value was 160. Further, the ED (30 mmHg) in experiment [1] is 2.96 mg/kg. For the same molecule, the “vasodilation: difference factor of the dosages of R- and S-carvedilol” value in experiment [1] (ratio of ED-30mmHg R-carvedilol to S-carvedilol, i.v., SHR) stood at 11.

As for `COc1ccccc1OCCNC[C@H](O)COc1cccc2[nH]c3ccccc3c12` [S-carvedilol, S-(-)-(1-Carbazol-4-yloxy)-3-[2-(2-methoxyphenoxy)]ethylaminopropan-2-ol], in the experiment with isoprenaline tachycardia (awake rabbits, i.v.), the median effective dose (ED50) stood at 0.025 mg/kg. Besides, the results for the β-blocking properties entry in the experiment with isoprenaline tachycardia and in the experiment on isoprenaline tachycardia (listed as Example 8) were “practically only S-carvedilol can be regarded as being a β-blocker” and “displays β-blocking properties”, respectively. Further, the ED (30 mmHg) in experiment [1] was 0.27 mg/kg. Besides, the “dosage for blood pressure lowering of 30 mm.Hg in comparison to β-blockade (times higher)” value in experiment [1] (S-carvedilol, ED-30mmHg vs β-blockade ED50%) is “about 10 times”.
